In patent US6403637B1, “Methods of modulating matrix metalloproteinase activity and uses thereof” (priority 1999, dated 2002):

Assays:
synoviocytes = test: Internalization of 125I collagenase-3 by human synoviocytes; assay type: cell-based; settings: compared to chondrocytes
Protocol: (§1) Although the low density lipoprotein receptor-related protein is not required for rat collagenase-3 binding to the cell, it might be required for ligand internalization. Therefore, internalization assays were performed with ^125I-rat collagenase-3 using MEF-1 and MEF-2 cells as follows. After binding 125I-rat labeled proteins as above, the cells were washed three times with cold modified Eagle's media (0.5 ml) to remove unbound ligand. The cells were then warmed to 37° C. by the addition of prewarmed modified Eagle's media (0.25 ml), and incubated at 37° C. for selected intervals. At each time point, the media were collected, and the cells were washed once with ice-cold MEM, then incubated with 0.25% Pronase®-E in modified Eagle's media for 15 min at 4° C. to strip cell surface proteins. The cell suspension was then centrifuged, and the radioactivity associated with cell pellets (defining internalized ^125I-proteins) was measured at each time point.
(§2) Human tissue (articular cartilage and synovium) was obtained at surgery or autopsy and was prepared as follows. Tissue was minced in a laminar flow hood, then incubated in sterile filtered serum-free Dulbecco's modified Eagle's medium (50 ml) containing trypsin (0.25%) for 1 h at 37° C. on an orbital shaker. […]

human synoviocytes = test: Excretion of degraded (TCA-soluble) 125I-collagenase-3 from human synoviocytes; assay type: cell-based
Protocol: (§3) Excretion of degraded matrix metalloproteinase is preferably evaluated by performing steps (a) through (e) of the internalization assay described above, collecting the media overlying the cells after incubating for 15 min to I hr, precipitating intact proteins from the collected media (e.g., incubating for 2 hr with 20% trichloroacetic acid in ethanol and 2% bovine serum albumin), pelleting the precipitated intact proteins, and measuring the label in the supernatant (e.g., by gamma counting ^125I).
as §2
(§4) As receptor-mediated processing of collagenase-3 culminates in lysosomal degradation and extracellular release of the ligand, binding and degradation assays as above were performed and measured the presence of degraded (TCA-soluble) ^125I-collagenase-3 in the media overlying cells. […]

UMR 106-01 cells [1] = test: Competition for 125I collagenase-3 binding in UMR 106-01 cells; set-up: species or system rat; settings: 125I-rat collagenase-3
Protocol: (§5) For all binding experiments, cells were seeded into 2.0 cm^2 wells. After the cells reached approximately 95% confluence, the medium was replaced with fresh medium containing 1 mg/ml BSA and the cells were assayed for binding 4 h later. The cells were first washed with maintenance medium, then incubated in the same medium with 0.01% Tween 80 containing ^125I-rat collagenase-3 or other iodinated ligands at 4° C. for 2 h. Non-specific binding was assessed by adding a 50-100-fold excess of cold ligand to half the wells, while an equivalent volume of buffer was added to the remaining wells. After incubation, the wells were washed three times with ice-cold MEM (0.5 ml). The cells were then lysed with 500 μl of 1 M NaOH and the lysates were counted on a gamma counter. Protein labeling with ^125I was done using the chloramine T method (Greenwood et al., 1963, Biochem. J. 89:114). The proteins had specific activities ranging from 9 to 27 μCi/μg.
These proteins were used as competitors in a series of binding assays in UMR cells using ^125I mouse collagenase-3. Radioactive labeling and binding assays were performed as in Example 1.

human chondrocytes [2] = test: Internalization of 125I collagenase-3 by human chondrocytes; assay type: cell-based; settings: p<0.001
Protocol: as §1
Human tissue (articular cartilage and synovium) was obtained at surgery or autopsy and was prepared as follows. […]
To determine whether the decreased collagenase-3 binding in osteoarthritis tissues correlated with reduced receptor function, the amount of ^125I collagenase which was internalized by osteoarthritis and control chondrocytes was determined as described in Example 1. […]

UMR 106-01 cells [3] = test: Internalization assay in UMR 106-01 cells; assay type: cell-based, rat; set-up: reduction of intracellular accumulation of 125I-collagenase: dose or concentration left out as unconfirmed
Protocol: as §1
It is known that RAP inhibits internalization of ligands by the low density lipoprotein receptor-related protein (Kounnas et al., 1996, J. Biol. Chem 271:6523). Therefore, internalization assays were performed using ^125I-labeled rat collagenase-3 as a ligand and receptor-associated protein as a competitor. Human receptor-associated protein from the pGEX-receptor-associated protein expression vector (provided by Dr. Joachim Herz, University of Texas Southwestern Medical Center, Dallas, Tex.) was expressed in bacteria and prepared as described in Herz et al., 1991, J. Biol. Chem. 266:21232.
To investigate the mechanism by which RAP regulates internalization of collagenase-3, an experiment was performed where excess unlabeled RAP or rat collagenase-3 was prebound to UMR 106-01 cells. Binding and internalization of ^125I-labeled rat collagenase-3 and RAP were then allowed to proceed.

normal rat osteoblasts = test: Internalization of 125I-rat collagenase-3 in normal rat osteoblasts; assay type: cell-based; set-up: reduction of intracellular accumulation of 125I-collagenase: dose or concentration left out as unconfirmed
Protocol: Previous work has shown that the rat collagenase-3 endocytosis receptor system is present on UMR 106-01 rat osteosarcoma cells (Omura et al, 1994, J. Biol. Chem. 269:24994). To determine whether the receptor is present in other cells, several cell types were tested for their ability to bind rat collagenase-3. These cell types were normal rat osteoblasts, rat embryo fibroblasts, the rat epithelial breast carcinoma cell line BC-1, mouse NIH 3T3 fibroblasts, the human osteosarcoma cell line SAOS-2, and the rat osteosarcoma cell lines ROS 17/2.8 and UMR 106-01. The human osteosarcoma cell line SAOS-2 (ATCC HTB 85) and the mouse embryo fibroblast cell line NIH 3T3 (ATCC CRL 1658) were cultured according to recommendations of the American Type Culture Collection, Rockville, Md. UMR 106-01 rat osteosarcoma cells were cultured as described in Roswit et al., 1992, Arch. Biochem. Biophys. […]
Although the low density lipoprotein receptor-related protein is not required for rat collagenase-3 binding to the cell, it might be required for ligand internalization. […] The cell suspension was then centrifuged, and the radioactivity associated with cell pellets (defining internalized ^125I-proteins) was measured at each time point.
The ability of receptor-associated protein to inhibit internalization of ^125I-rat collagenase-3 in UMR 106-01 osteoblastic cells and normal rat osteoblasts was determined next. […]

human chondrocytes [4] = test: Excretion of degraded (TCA-soluble) 125I-collagenase-3 from human chondrocytes; assay type: cell-based
Protocol: as §3, §2, §4

human chondrocytes [5] = test: Binding of 125I collagenase-3 to human chondrocytes; settings: osteoarthritis chondrocytes, 10 μM b.i.d. for three days; p<0.05
Protocol: as §5, §2

[6] = 3 nM 125I-rat collagenase-3 + 100 nM RAP, mean ± SEM, triplicate

Row | Compound | inhibition of collagenase-3 internalization (in words) (synoviocytes) | effect on excretion of collagenase-3 (in words) (human synoviocytes) | competition with / inhibition of 125I-rat collagenase-3 binding (in words) (UMR 106-01 cells [1]) | inhibition of collagenase-3 internalization (human chondrocytes [2]; control chondrocytes) [%] | reduction of collagenase-3 internalization (human chondrocytes [2]; osteoarthritis chondrocytes) [%] | % of maximum internalization, UMR 106-01 rat osteoblasts (UMR 106-01 cells [3]; [6]) [%] | inhibition of internalization of 125I-rat collagenase-3 (UMR 106-01 cells [3]; FIG. 10, increasing concentrations of RAP) | effect of prebound excess unlabeled protein on rat collagenase-3 internalization (UMR 106-01 cells [3]; prebound to cells) | reduction of intracellular accumulation of 125I-collagenase (UMR 106-01 cells [3]; receptor-associated protein in binding medium) [%] | % of maximum internalization, Normal rat osteoblasts (normal rat osteoblasts; [6]) [%] | reduction of intracellular accumulation of 125I-collagenase (normal rat osteoblasts; receptor-associated protein in binding medium, normal mineralizing rat osteoblasts) [%] | effect on excretion of collagenase-3 (in words) (human chondrocytes [4]; chondrocytes) | increase in collagenase-3 binding (human chondrocytes [5]) [%] | enhancement of excretion of degraded collagenase-3 (human chondrocytes [4]; osteoarthritis chondrocytes, 10 μM b.i.d. for three days, p<0.02)
1 | RAP: human receptor-associated protein expressed in bacteria from the pGEX expression vector; inhibits ligand internalization by LRP | similar | inhibited | does not inhibit | 88.2 | 74.3 | 20.84 ± 1.98 | approximately 70% | inhibited | 79 | 56.99 ± 4.49 | 43 | inhibited |  | 
2 | CC[C@H](C)C(=O)O[C@H]1C[C@H](O)C=C2C=C[C@H](C)[C@H](CC[C@@H](O)C[C@@H](O)CC(=O)[O-])[C@H]21.[Na+] [pravastatin, Pravastatin sodium] |  |  |  |  |  |  |  |  |  |  |  |  | 30 | over 320%
